In PubChem BioAssay AID857 (Vanderbilt High Throughput Screening Facility, 2007):
Active and inactive are the calls of the source.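 How the source made its calls: active means a full or partial dose-response curve in at least two of three replicate runs; inactive means the rest.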

Molecular target: D(1B) dopamine receptor (Homo sapiens) (UniProt P21918)
Assay: dopamine D5 receptor modulation at EC30 dopamine, dose response, selectivity assay for D1 allosteric modulator project, cell-based, HEK293, CRE-luciferase, luminescence (AID 857);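 further: HEK 293 cells expressing human D5 with a CRE-driven luciferase reporter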

Chain of D(1B) dopamine receptor (Homo sapiens) (P21918 whole entry, looked up): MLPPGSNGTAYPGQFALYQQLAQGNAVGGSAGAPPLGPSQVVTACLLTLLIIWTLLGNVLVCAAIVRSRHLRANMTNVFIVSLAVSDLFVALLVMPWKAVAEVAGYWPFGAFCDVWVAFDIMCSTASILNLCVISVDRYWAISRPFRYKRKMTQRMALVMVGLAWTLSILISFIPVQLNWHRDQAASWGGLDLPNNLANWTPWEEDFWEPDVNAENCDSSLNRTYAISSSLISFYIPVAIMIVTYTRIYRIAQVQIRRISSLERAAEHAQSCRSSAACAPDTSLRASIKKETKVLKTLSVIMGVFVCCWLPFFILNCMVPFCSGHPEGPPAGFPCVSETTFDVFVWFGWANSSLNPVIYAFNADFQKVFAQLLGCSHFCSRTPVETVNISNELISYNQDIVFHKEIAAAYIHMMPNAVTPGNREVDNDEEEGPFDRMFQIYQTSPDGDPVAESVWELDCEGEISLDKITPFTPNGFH

| outcome | EC50 [nM] | Compound |
| --- | --- | --- |
| inactive |  | O=C1CSc2ccccc2N1Cc1ccccc1F |
| inactive |  | Cc1cccc(C2CC(c3ccc(F)cc3)Nc3nc(N)nn32)c1 (configuration not stated) |
| inactive |  | COc1ccc(Cc2nnc(NC(=O)c3c(-c4ccccc4)noc3C)s2)cc1 |
| inactive |  | CCc1nc2sc3ccccc3c(=O)c2c(=O)n1Cc1ccco1 |
| inactive |  | Cn1c(=O)c2[nH]c(NCC3CCCO3)nc2n(-c2ccccc2)c1=O (configuration not stated) |
| inactive |  | N#Cc1nc(N)nc(N(c2ccccc2)c2ccccc2)n1 |
| inactive |  | CC(C)C1C2=C(CC(C)(C)CC2=O)ON1c1ccccc1 (configuration not stated) |
| inactive |  | Cn1c(=O)c2c(SCc3ccccc3)nc(-c3ccco3)nc2n(C)c1=O |
| inactive |  | CC(=O)Nc1nc2n(n1)C(c1ccccc1)C=C(c1ccccc1)N2 (configuration not stated) |
| inactive |  | CCn1c(=O)c(C(=O)NCc2cccnc2)c(O)c2ccccc21 |
| inactive |  | N#CCSc1nc2c(sc(=S)n2Cc2ccco2)c(=O)n1-c1ccc(F)cc1 |
| inactive |  | COc1ccc(-c2c3c(=O)n(C)c(=O)n(C)c3cn2-c2ccccc2)cc1 |
| inactive |  | CC(=O)C1=C(C)NC(SCC(=O)c2ccc(F)cc2)=C(C#N)C1c1ccco1 (configuration not stated) |
| inactive |  | N#CC1=C(N)Oc2n[nH]c(-c3cccs3)c2C1c1ccsc1 (configuration not stated) |
| inactive |  | N#Cc1c2c(nc(N)c1-c1ccccc1)CCCCC2 |
| inactive |  | CSc1ccc(C2C(C#N)=C(N)N(c3ccccc3)C3=C2C(=O)CCC3)cc1 (configuration not stated) |
| inactive |  | CCc1nc2ccccc2c(C(=O)OCC(=O)NCc2ccco2)c1C |
| inactive |  | COc1ccc2c(c1)C(=O)N(c1ccccc1OC)C(=O)C2(C)C |

| outcome | EC50 [nM] | Compound |
| --- | --- | --- |
|  | 1110 | Cc1cc(C)n(-c2nc3ccccc3nc2Nc2ccc(CC(=O)O)cc2)n1 |
| inactive |  | O=C1COc2ccc(C(=O)c3ccccc3)cc2CN1 |
| inactive |  | O=CN1Cc2[nH]c3ccccc3c2N(c2ccc(Cl)cc2)C1=O |
| inactive |  | COc1ccc(-n2nc3ccccc3n2)cc1 |
| inactive |  | COc1ccc(OC)c(/C=N/c2oc(-c3ccco3)c(-c3ccco3)c2C#N)c1 |
| inactive |  | O=S1(=O)N=C(N2CCc3ccccc3C2)c2ccccc21 |
| inactive |  | C=CCSc1nnc2n(-c3ccccc3OC)c(=O)c3c4c(sc3n12)CCC4 |
| inactive |  | NC(=O)c1oc2ccccc2c1NC(=O)c1ccc(F)cc1 |
| inactive |  | Nc1nc(SCC(=O)OCc2ccccc2)[nH]c(=O)c1NC(=O)c1ccco1 |
| inactive |  | O=C(CSc1nnc(COc2ccc(F)cc2)o1)N1c2ccccc2CCc2ccccc21 |
| inactive |  | COc1cccc(N2C(=O)C3ON(c4ccccc4)C(c4cccs4)C3C2=O)c1 (configuration not stated) |
| inactive |  | Cc1ccc(Oc2ccccc2)c(NC=O)c1 |
|  | 2010 | Cc1c(-c2ccccc2)nc(N)c(C#N)c1-c1ccco1 |
| inactive |  | O=C1COc2ccccc2N1Cc1ccccc1Cl |
| inactive |  | Cc1cccc(-c2c3c(=O)n(C)c(=O)n(C)c3cn2-c2ccccc2O)c1 |
| inactive |  | N#CC1=C(N)N(c2ccccc2)C2=C(C(=O)CCC2)C1c1ccsc1 (configuration not stated) |
| inactive |  | CC1(C)CC(=O)C2=C(C1)OC(N)=C(C#N)C2c1cccc(OC(=O)c2ccco2)c1 (configuration not stated) |

More lines, now with the values behind:

| Compound | outcome | EC50 [nM] |
| --- | --- | --- |
| COc1ncnc2c1N[C@@](C)(O)c1c(F)c(F)c(F)c(F)c1S2 | inactive |  |
| Cc1cc(-c2cccs2)c2c(n1)sc1c(=O)[nH]c(=O)[nH]c12 | inactive |  |
| CC(C)OC(=O)CSc1nnc(-c2cnccn2)n1-c1ccc(Cl)cc1 | inactive |  |
| COc1ccc(-c2noc(CCN3C(=O)c4ccccc4C3=O)n2)cc1OC | inactive |  |
| Cc1noc(C)c1S(=O)(=O)N1CCCC(C(=O)NCc2ccccn2)C1 (configuration not stated) | inactive |  |
| CCOC(=O)N1CCN(C(=O)C(C)(C)Oc2ccc(Cl)cc2)CC1 | inactive |  |
| CCCc1cc(C(=O)Nc2sc(C(C)=O)c(C)c2C(=O)OCC)no1 | inactive |  |
| Cc1c(C)c2ccc(OC3CCCCC3=O)cc2oc1=O (configuration not stated) | inactive |  |
| CCN(CC)CCOc1c(Br)ccc2c1sc1nc3n(c(=O)c12)CCC3 | inactive |  |
| Cc1cc(-n2nc(C)cc2C)nc(NS(=O)(=O)c2ccccc2)n1 | inactive |  |
| O=C(CCSc1nc2ccccc2o1)N1CCOCC1 | inactive |  |
| CSc1oc(-c2ccco2)nc1S(=O)(=O)c1ccc(Br)cc1 | inactive |  |
| CCOC(=O)c1oc2ccc(S(=O)(=O)N3CCOCC3)cc2c1C | inactive |  |
| COc1ccc(OC)c(C2=NOC(C(=O)Nc3cccc(C(C)=O)c3)C2)c1 (configuration not stated) | inactive |  |
| Cc1nc(-c2ccc(S(=O)(=O)N3CCCCCC3)cc2)cs1 | inactive |  |
| COc1ccc(C2CC(c3cc(OC)ccc3OC)n3nnnc3N2)cc1 (configuration not stated) | inactive |  |
| CCOC(=O)c1ccc(Oc2cc(C)nc(SC)n2)cc1 | inactive |  |
| CCCCN(CC)C(=O)c1ccc(Cl)c(Cl)c1 | inactive |  |
| Cc1cc(NCCCn2ccnc2)n2c(nc3ccccc32)c1C#N | inactive |  |
| O=C(OCC#CCSc1nnc(-c2ccc(Br)cc2)o1)c1ccco1 | inactive |  |
| Fc1cc(Br)ccc1Nc1nc2ccccc2n2nnnc12 | inactive |  |
| O=C(CC1SC(=NC2CCCCC2)NC1=O)Nc1ccccc1 (configuration not stated) | inactive |  |
| CCCCCn1c(NCc2ccco2)nc2ccccc21 | inactive |  |
| CCNc1nc(NC(C)(C)C)nc(N(CC)n2cnnc2)n1 | inactive |  |
| CCCn1c(=NC(C)=O)c(C(=O)OCC)cc2c(=O)n3ccccc3nc21 | inactive |  |
| CSC1=NCCN1C(=O)c1ccc(Br)o1 | inactive |  |

| Compound | outcome | EC50 [nM] |
| --- | --- | --- |
| COCCCNc1nc2ccccc2nc1NS(=O)(=O)c1cccs1 | inactive |  |
| Cn1cccc1C1NC(=O)c2c(sc3c2CCC(C(C)(C)C)C3)N1 (configuration not stated) | inactive |  |
| C=CCn1c(=S)[nH]c2nc3c(cc2c1=O)CCCC3 | inactive |  |
| CCOC(=O)c1cnn(-c2cccc(Cl)c2)c1N | inactive |  |
| Cc1ccc(S(=O)(=O)N2CCN(C(=O)COC(=O)c3cc(C)oc3C)CC2)cc1 | inactive |  |
| COc1nc(NCc2ccc(Cl)cc2)nc(OC)n1 | inactive |  |
| CCn1c(SCc2cccnc2)nc2c1c(=O)n(C)c(=O)n2C | inactive |  |
| O=C1C(Cl)=C(NCC2CCCO2)C(=O)N1Cc1ccccc1 (configuration not stated) | inactive |  |
| CC(C)Cn1c(=O)c2c(c3ccccc31)OC(C)C(=O)N2 (configuration not stated) | inactive |  |
| CCOc1ccc(-c2noc(COC)n2)cc1OC | inactive |  |
| COc1ccc(CN2CCN(S(=O)(=O)c3ccccc3)CC2)c(OC)c1 | inactive |  |
| COc1ccc(S(=O)(=O)Nc2ccc3c(c2)OCO3)cc1OC | inactive |  |
| COC(=O)c1ccccc1NC(=O)c1ccc2c(c1)OCCO2 | inactive |  |
| NC(=O)NC(=O)Nc1ccccc1Cl | inactive |  |
| CCOC(=O)N1CCN(S(=O)(=O)c2ccc3c(c2)CCN3C(=O)C2CCC2)CC1 | inactive |  |
| COC(=O)c1cc(NC(=O)CSc2nc(C)cc(=O)[nH]2)cc(C(=O)OC)c1 | inactive |  |
| COc1ccc(-c2coc3cc(O)ccc3c2=O)cc1OC | inactive |  |
| CCCNc1nc2c(c(=O)[nH]c(=O)n2C)n1CCc1ccccc1 | inactive |  |
| CSc1oc(-c2ccco2)nc1S(=O)(=O)c1ccc(F)cc1 | inactive |  |
| COc1ccc2c(C(F)(F)F)cc(=O)oc2c1C | inactive |  |
| Cc1c(C(=O)OCC(C)C)[nH]c2c1C(=O)CC(c1ccco1)C2 (configuration not stated) |  | 1750 |
| Cn1c(=O)c2c(-c3ccccc3)n(N3CCOCC3)cc2n(C)c1=O | inactive |  |
| COC(=O)c1cccc(N2C(=O)C(Cl)=C(N3CCOCC3)C2=O)c1 | inactive |  |
| CCOC(=O)c1[nH]cnc1C(=O)Nc1ccccn1 | inactive |  |
| O=C1c2ccccc2-c2onc3ccc(NCCCn4ccnc4)c1c23 | inactive |  |
| COC(=O)c1ccc(CSc2nc3c(cnn3-c3ccc(F)cc3)c(=O)[nH]2)o1 | inactive |  |

| Compound | outcome | EC50 [nM] |
| --- | --- | --- |
| C=CCNC(=O)C1CC(c2cccc(OC)c2)=NO1 (configuration not stated) | inactive |  |
| Brc1ccc(-c2nn3c(Cc4ccccc4)nnc3s2)o1 | inactive |  |
| C=CCSc1nc2ccccc2c(=O)[nH]1 | inactive |  |
| COc1ccc(-c2noc(-c3ccco3)n2)cc1OC | inactive |  |
| Cn1c(SCc2ccon2)nc2ccccc2c1=O | inactive |  |
| CCOC(=O)CCSc1nc(C)c2ccccc2n1 | inactive |  |
| CCOc1ccccc1NC(=O)CN(C)S(=O)(=O)c1cccc2nsnc12 | inactive |  |
| CCC(=O)n1nc(-c2ccco2)nc1N | inactive |  |
| CCOC(=O)c1c(C)c(C(=O)NCc2ccccc2OC)c(C)n1C | inactive |  |
| CC1(C)Cc2c(C#N)c(NC3CCCCC3)nc(-c3ccco3)c2CO1 | inactive |  |
| Cc1ccc(-c2nc3ncccn3c2NC(=O)C2CC2)cc1 | inactive |  |
| COc1ccc(C2=NOC(C(=O)NC3CCCCC3)C2)cc1OC (configuration not stated) | inactive |  |
| CCCC(=O)Nc1ccc(NC(=O)C2CC2)cn1 | inactive |  |
| NC(=O)c1cc(-c2ccccc2)nc(N2CCCCCC2)n1 | inactive |  |
| O=C(NCc1ccco1)c1cnn2c(C(F)(F)F)cc(-c3ccco3)nc12 | inactive |  |
| O=c1[nH]c2cc3c(cc2cc1C(c1nnnn1C1CCCC1)N1CCSCC1)OCCO3 (configuration not stated) | inactive |  |
| CCOc1ncccc1C(=O)OCc1nnc(-c2ccccc2)o1 | inactive |  |
| CCOC(=O)Cc1[nH]nc2c1C(c1cccc(OC)c1OC)C(C#N)=C(N)O2 (configuration not stated) | inactive |  |
| N#CCCN1CCN(S(=O)(=O)c2ccc(S(=O)(=O)NC3CCCCC3)cc2)CC1 | inactive |  |
| Cc1cc(NS(=O)(=O)c2ccc(NC(=O)COc3ccccc3C(C)C)cc2)no1 | inactive |  |
| CC(=O)c1cc(C#N)c(SCC(=O)OC(C)(C)C)nc1C | inactive |  |
| O=C(OCCCCN1C(=O)c2ccccc2C1=O)c1n[nH]c2ccccc12 | inactive |  |
| Cc1ccc(CNc2nc3ccccc3n3nnnc23)cc1 | inactive |  |
| CCSc1nc2c(c(=O)n1CC)SC(C)C2 (configuration not stated) | inactive |  |
| Cc1oc2ccc(OCC(N)=O)cc2c1C(=O)OC(C)C | inactive |  |
